Our source for the Mean_transport_ratio_WT, relative_Phe244Ala_uptake_in% and Mean_transport_ratio_Phe244Ala values is paper PMC11602988 (The Journal of Biological Chemistry, 2024).

In experiment [1] the target is T1, OCT1 WT (Homo sapiens, UniProt O15245).
T1 sequence (O15245 1-554): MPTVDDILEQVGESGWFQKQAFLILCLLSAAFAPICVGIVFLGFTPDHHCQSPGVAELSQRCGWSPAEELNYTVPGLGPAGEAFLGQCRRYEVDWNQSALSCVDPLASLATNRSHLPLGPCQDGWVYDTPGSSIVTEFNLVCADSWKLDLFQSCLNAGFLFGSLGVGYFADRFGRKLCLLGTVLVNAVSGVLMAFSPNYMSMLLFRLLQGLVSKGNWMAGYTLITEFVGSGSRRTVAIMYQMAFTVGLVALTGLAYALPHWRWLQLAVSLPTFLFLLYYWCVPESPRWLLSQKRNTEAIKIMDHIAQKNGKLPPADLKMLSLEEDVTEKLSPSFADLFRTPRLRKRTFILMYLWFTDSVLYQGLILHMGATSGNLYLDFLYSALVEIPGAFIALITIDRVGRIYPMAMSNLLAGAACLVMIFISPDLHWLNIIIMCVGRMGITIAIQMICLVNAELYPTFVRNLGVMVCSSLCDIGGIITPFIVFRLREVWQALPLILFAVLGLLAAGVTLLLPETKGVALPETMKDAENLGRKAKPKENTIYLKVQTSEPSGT
Kind of experiment: Uptake screening (transport ratio over empty vector), HEK293 cells overexpressing OCT1 WT.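 Note: intracellular substrate levels quantified by HPLC–tandem mass spectrometry after uptake in HBSS+ buffer at 37 °C, stable Flp-In HEK293 lines, fold change versus empty vector–transfected cells.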 Further details: expressed in transfected cells. It is filed as cell-based.

In experiment [2] the target is T2, OCT1 Phe244Ala variant (Homo sapiens, UniProt O15245, F244A).
T2 sequence (O15245 1-554 F244A): T1 sequence (O15245 1-554) with F244A
Kind of experiment: Uptake screening (transport ratio over empty vector), HEK293 cells overexpressing OCT1 Phe244Ala variant.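 Note: stably transfected HEK293 cells, intracellular substrate quantified by HPLC-tandem mass spectrometry in cell lysates, uptake in HBSS+ buffer.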 It is filed as cell-based. Further details: expressed in transfected cells.
Description: All experiments were carried out using transporter-overexpressing HEK293 cells. […] Cells were cultivated in Dulbecco’s Modified Eagle’s medium supplemented with 10% fetal calf serum, 100 U/ml penicillin, and 100 μg/ml streptomycin. Cells were passaged twice a week and kept in culture for no longer than 30 passages.
For uptake studies, 300,000 HEK293 cells were plated in each well of 24-well plates precoated with poly-D-lysine 48 prior to the experiment. On the day of the experiment, cells were washed once with prewarmed to 37 °C HBSS+ (Hank’s balanced salt solution supplemented with 10 mM Hepes, both Sigma-Aldrich). […] Uptake was stopped by adding ice-cold HBSS+ and cells were washed twice with ice-cold buffer before cell lysis was done using 80% acetonitrile containing an appropriate internal standard for eventual mass spectrometry. Relative quantification was done by comparison of transporter-overexpressing cells to empty vector–transfected controls. For uptake kinetic experiments, cells were incubated with increasing concentrations of substrate dissolved in HBSS+. Absolute quantification was done later by comparison to a standard curve in lysis buffer with known concentration.
Intracellular drug concentrations were detected and quantified by HPLC coupled to mass spectrometry. […] Substance-specific conditions were used to adjust the retention times of the analytes.
Transport ratios were determined as relative fold-increase of the uptake in transporter-overexpressing cells over empty vector–transfected control cells. For transport kinetic experiments, absolute substrate quantification was done by signal comparison to a standard curve with known concentrations. Net uptake was then determined by subtracting the uptake into empty vector–transfected cells from transporter-overexpressing cells. […] Vmax defines the maximum transport velocity, Km refers to the substrate concentration required to reach half vmax. The intrinsic clearance Clint is the ratio of vmax over Km.

Where [3] appears, read: uptake ratio of OCT1 WT-overexpressing HEK293 cells over empty vector.
[4] abbreviates: Phe244Ala uptake relative to OCT1 WT.
Where [5] appears, read: uptake ratio of OCT1 Phe244Ala-overexpressing HEK293 cells over empty vector.
[6] abbreviates: uptake ratio over empty vector, HEK293 cells overexpressing OCT1 WT.
Where [7] appears, read: Phe244Ala uptake relative to WT.
Setting [8] is: uptake ratio over empty vector, HEK293 cells overexpressing OCT1 Phe244Ala.

Residue numbers refer to the chain shown, from its start. Like-named read-outs stand apart in the source and are kept apart here.

For `CNC(C)Cc1ccc2c(c1)OCO2` (stereo not shown) [3,4-Methylendioxy-N-methylamphetamin], the Mean_transport_ratio_WT in experiment [1] (setting [3]) was determined as 1.723. For the same compound, the relative_Phe244Ala_uptake_in% in experiment [2] (setting [4]) was found to be 158.013%. The Mean_transport_ratio_Phe244Ala in experiment [2] (setting [5]) worked out at 2.142.
In the same order, the values of `COc1cc(CCN)ccc1O` [3-Methoxy-p-tyramine] are 3.981, 27.805% and 1.829.
In the same order, the values of `Cc1cc(O)cc(C)c1OCC(C)N` (stereo not shown) [4-Hydroxy mexiletine] are 3.163, 23.363% and 1.505.
Regarding `COc1ccc2[nH]cc(CCN)c2c1` [5-Methoxytryptamine], the Mean_transport_ratio_WT in experiment [1] is 3.73. Moreover, in experiment [2], the Mean_transport_ratio_Phe244Ala is reported as 1.602 and the relative_Phe244Ala_uptake_in% was 22.030%.
With `c1cnn(C2CCNCC2)c1` [762240-09-5], in experiment [1] (setting [6]), the Mean_transport_ratio_WT was 4.49. Besides, the relative_Phe244Ala_uptake_in% in experiment [2] (setting [7]) worked out at 3.421%. In addition, the Mean_transport_ratio_Phe244Ala in experiment [2] (setting [8]) was determined as 1.119.
The matching figures for `Cc1cc(N)c(OC(C)C)cc1C1CCNCC1` [1380575-45-0]: 4.645, 149.293% and 6.442.
The matching figures for `O=C(O[C@H]1C[N+]2(CCCOc3ccccc3)CCC1CC2)C(O)(c1cccs1)c1cccs1` [(R)-Aclidinium]: 5.059, 126.640% and 6.14.
Take `CNC[C@H](O)c1cccc(O)c1` [(R)-Phenylephrine]: in experiment [1] (setting [6]), the Mean_transport_ratio_WT is listed as 8.777. For the same compound, the relative_Phe244Ala_uptake_in% in experiment [2] (setting [4]) is 36.831%. For the same compound, the Mean_transport_ratio_Phe244Ala in experiment [2] (setting [8]) is on record as 3.864.
As for `CN(C)CCc1c[nH]c2ccc(C[C@@H]3COC(=O)N3)cc12` [(R)-Zolmitriptan], the Mean_transport_ratio_WT in experiment [1] is given as 34.392. Also, in experiment [2], the Mean_transport_ratio_Phe244Ala is on record as 13.515 and the relative_Phe244Ala_uptake_in% amounted to 37.478%.
The matching figures for `CC[C@@H](CO)NCCN[C@@H](CC)CO` [(R,R)-Ethambutol]: 26.39, 16.298 and 60.253%.
In the same order, the values of `CC[C@H](CO)NCCN[C@@H](CC)CO` [(R,S)-Ethambutol] are 17.35, 12.934 and 72.992%.
On to `O=C(OC1C[N+]2(CCCOc3ccccc3)CCC1CC2)C(O)(c1cccs1)c1cccs1` [(S)-Aclidinium], for which the Mean_transport_ratio_WT in experiment [1] (setting [6]) worked out at 4.495. In experiment [2] (setting [7]), the relative_Phe244Ala_uptake_in% is recorded as 205.468%. Further, the Mean_transport_ratio_Phe244Ala in experiment [2] (setting [8]) was found to be 8.181.
Regarding `CCN[C@@H](C)Cc1cccc(C(F)(F)F)c1` [(S)-Fenfluramine], in experiment [1], the Mean_transport_ratio_WT was 1.065. In addition, in experiment [2], the Mean_transport_ratio_Phe244Ala amounted to 1.119 and the relative_Phe244Ala_uptake_in% was found to be 183.841%.
`CN(C)CCc1c[nH]c2ccc(C[C@H]3COC(=O)N3)cc12` [(S)-Zolmitriptan]: the Mean_transport_ratio_WT in experiment [1] is given as 30.121. In addition, in experiment [2], the Mean_transport_ratio_Phe244Ala is 8.091 and the relative_Phe244Ala_uptake_in% is recorded as 24.350%.
The matching figures for `CC[C@@H](CO)NCCN[C@@H](CC)CO` [(S,S)-Ethambutol]: 21.59, 11.185 and 49.465%.
Regarding `CN(C)c1ccc(/C=C/c2cc[n+](C)cc2)cc1` [ASP^+, 4-(4-(dimethylamino)styryl)-N-methylpyridinium], in experiment [1] (setting [6]), the Mean_transport_ratio_WT turned out to be 12.491. Further, in experiment [2] (setting [7]), the relative_Phe244Ala_uptake_in% came to 62.977%. In addition, the Mean_transport_ratio_Phe244Ala in experiment [2] (setting [8]) turned out to be 8.237.
The matching figures for `CC(=O)OC(C)C[N+](C)(C)C` (stereo not drawn) [Acetyl-beta-Methylcholin]: 46.311, 14.392% and 7.521.
The matching figures for `CN(C)CCc1c[nH]c2ccc(CS(=O)(=O)N3CCCC3)cc12` [Almotriptan]: 3.882, 113.777% and 4.279.
`Nc1ccncc1N` [Amifampridine]: the Mean_transport_ratio_WT in experiment [1] (setting [6]) came out at 4.689. Moreover, the relative_Phe244Ala_uptake_in% in experiment [2] (setting [7]) is on record as 7.302%. Besides, the Mean_transport_ratio_Phe244Ala in experiment [2] (setting [8]) worked out at 1.269.
As for `N=C(N)NC(=O)c1nc(Cl)c(N)nc1N` [Amiloride], the Mean_transport_ratio_WT in experiment [1] was 37.597. In experiment [2], the Mean_transport_ratio_Phe244Ala is 23.504 and the relative_Phe244Ala_uptake_in% was 61.492%.
`CCN1CCCC1CNC(=O)c1cc(S(=O)(=O)CC)c(N)cc1OC` (stereo not shown) [Amisulpride]: in experiment [1] (setting [6]), the Mean_transport_ratio_WT worked out at 8.435. Moreover, in experiment [2] (setting [7]), the relative_Phe244Ala_uptake_in% was 97.893%. The Mean_transport_ratio_Phe244Ala in experiment [2] (setting [8]) is given as 8.279.
The matching figures for `CC[N+](CC)(CC)Cc1ccccc1` [Benzyltriethylammonium]: 56.17, 82.289% and 46.399.
With `COc1ccc2cc3[n+](cc2c1OC)CCc1cc2c(cc1-3)OCO2` [Berberine], the Mean_transport_ratio_WT in experiment [1] (setting [6]) came out at 11.952. In addition, the relative_Phe244Ala_uptake_in% in experiment [2] (setting [7]) stood at 63.219%. The Mean_transport_ratio_Phe244Ala in experiment [2] (setting [8]) stood at 7.924.
Turning to `NCC(O)c1ccccc1` (stereo not shown) [Bisnorephedrine], the Mean_transport_ratio_WT in experiment [1] (setting [6]) turned out to be 1.295. The relative_Phe244Ala_uptake_in% in experiment [2] (setting [7]) was 116.872%. The Mean_transport_ratio_Phe244Ala in experiment [2] (setting [8]) was 1.345.
The matching figures for `CCCCNC(=N)NC(=N)N` [Buformin]: 33.648, 42.469% and 14.865.
For the compound `CCCC[N+]1(C)[C@@H]2C[C@@H](OC(=O)[C@H](CO)c3ccccc3)C[C@H]1[C@@H]1O[C@@H]12` (stereo partly shown) [Butylscopolamine], in experiment [1] (setting [6]), the Mean_transport_ratio_WT was found to be 24.775. Moreover, the relative_Phe244Ala_uptake_in% in experiment [2] (setting [7]) worked out at 125.561%. Besides, in experiment [2] (setting [8]), the Mean_transport_ratio_Phe244Ala is 30.852.
The matching figures for `NC(N)=NC(N)=Nc1ccc(Cl)cc1` [CPB]: 17.903, 76.322% and 13.901.
Take `CN=C(NC#N)NCCSCc1nc[nH]c1C` [Cimetidin]: the Mean_transport_ratio_WT in experiment [1] (setting [6]) is 2.536. Besides, the relative_Phe244Ala_uptake_in% in experiment [2] (setting [7]) is listed as 103.374%. Also, in experiment [2] (setting [8]), the Mean_transport_ratio_Phe244Ala was determined as 2.588.
In the same order, the values of `C[N+]12CCC(CC1)C(OC(=O)C(O)(c1ccccc1)c1ccccc1)C2` (stereo not shown) [Clidinium] are 30.863, 112.238% and 34.518.
In the same order, the values of `CC(C)(C)NCC(O)c1ccc(O)c(O)c1` (stereo not shown) [Colterol] are 5.025, 33.880% and 2.364.
Regarding `c1c2c(cc3c1OCO3)-c1cc3ccc4c(c3c[n+]1CC2)OCO4` [Coptisine], in experiment [1] (setting [6]), the Mean_transport_ratio_WT is on record as 12.003. In addition, the relative_Phe244Ala_uptake_in% in experiment [2] (setting [7]) was determined as 90.627%. Moreover, the Mean_transport_ratio_Phe244Ala in experiment [2] (setting [8]) was 10.972.
As for `Cc1cccc(C)c1OCC(C)N` (stereo not shown) [Mexiletine], in experiment [2] (setting [4]), the relative_Phe244Ala_uptake_in% was 53.635%.
